Data published in ChEMBL document CHEMBL1201862, “PubChem BioAssay data set” (2004).
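Method: 48-hour compound exposure of cells in 96-well plates, five concentrations, linear interpolation of endpoints. GI50 is the concentration that inhibits growth by half.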 Activity calls are given as the source filed them. Cut-off read from the data, not from the text of the source: active = GI50 up to about 1.1 µM and inactive = higher.

How the values were obtained:
Assay in all cases: DTP human tumour cell line panel, 48 h
M14 = system: M14
TK-10 = system: TK-10
HT-29 = system: HT-29
NCI-H226 = system: NCI-H226
PC-3 = system: PC-3
MCF7 = system: MCF7
SW-620 = system: SW-620
Malme-3M = system: Malme-3M
A549 = system: A549
SR = system: SR
SF-295 = system: SF-295
HL-60 = system: HL-60
SK-MEL-28 = system: SK-MEL-28
CAKI-1 = system: CAKI-1
RXF 393 = system: RXF 393
HOP-92 = system: HOP-92
MDA-N = system: MDA-N
SK-MEL-2 = system: SK-MEL-2
OVCAR-3 = system: OVCAR-3

Measured: GI50

Cc1cccc(Nc2nc(NNC(=O)Cc3ccccc3)nc(NNC(=O)c3ccncc3)n2)c1
inactive: M14 > 10 µM | TK-10 > 10 µM | HT-29 > 10 µM | NCI-H226 > 10 µM | PC-3 > 10 µM | MCF7 > 10 µM | SW-620 > 10 µM | Malme-3M > 10 µM | A549 > 10 µM | SR > 10 µM | SF-295 > 10 µM | HL-60 > 10 µM | SK-MEL-28 > 10 µM | CAKI-1 > 10 µM | RXF 393 > 10 µM | HOP-92 > 10 µM | MDA-N > 10 µM

Cc1nc2ccc(Br)cc2c(=O)n1-c1nnc(C(C)(C)C)s1
inactive: M14 > 10 µM | TK-10 > 10 µM | HT-29 > 10 µM | NCI-H226 > 10 µM | PC-3 > 10 µM | MCF7 > 10 µM | SW-620 > 10 µM | A549 > 10 µM | SR > 10 µM | SF-295 > 10 µM | HL-60 > 10 µM | SK-MEL-28 > 10 µM | CAKI-1 > 10 µM | RXF 393 > 10 µM | HOP-92 > 10 µM | MDA-N > 10 µM | SK-MEL-2 > 10 µM | OVCAR-3 > 10 µM

CC(=O)N(C(C)=O)n1c(-c2ccccc2)n[nH]c1=O
inactive: M14 > 100 µM | TK-10 > 100 µM | HT-29 > 100 µM | PC-3 > 100 µM | MCF7 > 100 µM | SW-620 > 100 µM | A549 > 100 µM | SR > 100 µM | SF-295 > 100 µM | SK-MEL-28 > 100 µM | RXF 393 > 100 µM | HOP-92 > 100 µM | MDA-N > 100 µM | SK-MEL-2 > 100 µM | OVCAR-3 > 100 µM

CNC(=O)N(CCC#N)CCN(CCN(C(=O)NC)c1ccccc1)C(=O)NC
inactive: M14 > 100 µM | TK-10 > 100 µM | HT-29 > 100 µM | NCI-H226 > 100 µM | PC-3 > 100 µM | MCF7 > 100 µM | SW-620 > 100 µM | Malme-3M > 100 µM | A549 > 100 µM | SR > 100 µM | SF-295 > 100 µM | SK-MEL-28 > 100 µM | CAKI-1 > 100 µM | RXF 393 > 100 µM | HOP-92 > 100 µM | MDA-N > 100 µM | SK-MEL-2 > 100 µM | OVCAR-3 > 100 µM

Cc1c(Cc2ccccc2)n(C(C)OCCN(OC(=O)Oc2ccccc2)C(=O)Oc2ccccc2)c(=O)[nH]c1=O (stereo unspecified)
inactive: M14 16.1 µM | HT-29 16.1 µM | PC-3 21.9 µM | MCF7 23.4 µM | SW-620 20.7 µM | A549 25.2 µM | SR 28.6 µM | SF-295 16 µM | SK-MEL-28 21.3 µM | CAKI-1 18.7 µM | RXF 393 15.8 µM | HOP-92 13.5 µM | MDA-N 19.3 µM | SK-MEL-2 19.7 µM | OVCAR-3 19 µM

CC(C)(C)OC(=O)[N+](=N)C(=O)C1CCC(=O)N1C(=O)OCc1ccccc1 (stereo unspecified)
inactive: M14 > 100 µM | TK-10 > 100 µM | HT-29 > 100 µM | NCI-H226 > 100 µM | PC-3 > 100 µM | MCF7 > 100 µM | SW-620 > 100 µM | Malme-3M > 100 µM | A549 > 100 µM | SR > 100 µM | SF-295 > 100 µM | HL-60 > 100 µM | SK-MEL-28 > 100 µM | CAKI-1 > 100 µM | RXF 393 > 100 µM | HOP-92 > 100 µM | MDA-N > 100 µM | OVCAR-3 > 100 µM
